Patent US20260070902A1, “SULFONYL DERIVATIVES AS CCR6 INHIBITORS” (Hoffmann-La Roche Inc., priority 2022, published 2026)

What was measured:
Type in all cases: cell-based
[1] = molecular target: T1, human CCR6 (Homo sapiens, UniProt P51684); experiment: Human CCR6-CRE reporter assay; set-up: The second construct contained the open reading frame of human CCR6 in the pUNO1 backbone; host or cells: 293FT cells; conditions: relative -Log IC50; 293FT cells transfected with human CCR6 and CRE-luciferase reporter; 6 μM Forskolin, 6 nM CCL20; 5 h
T1 sequence (P51684 1-374): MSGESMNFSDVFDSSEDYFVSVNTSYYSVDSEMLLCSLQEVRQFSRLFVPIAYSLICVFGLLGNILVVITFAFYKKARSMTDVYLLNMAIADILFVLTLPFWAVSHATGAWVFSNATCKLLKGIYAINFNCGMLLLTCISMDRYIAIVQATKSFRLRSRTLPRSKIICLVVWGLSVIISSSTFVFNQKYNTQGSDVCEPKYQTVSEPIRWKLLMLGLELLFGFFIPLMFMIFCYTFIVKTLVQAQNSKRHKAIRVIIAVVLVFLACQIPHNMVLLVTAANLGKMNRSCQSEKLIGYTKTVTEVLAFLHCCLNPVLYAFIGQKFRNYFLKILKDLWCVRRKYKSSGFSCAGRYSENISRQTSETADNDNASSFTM
Outline: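 293FT cells transiently co-transfected with human CCR6 and a CRE-luc2P reporter, used 48 h later. Compounds incubated with cells in medium containing 6 μM Forskolin and 6 nM CCL20 (assay-medium levels), 0.1% DMSO final, 5 h at 37° C; luminescence read, relative −Log IC50 from four-parameter fit.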

[2] = test system: Human CD4+ T cells; experiment: CD4+ T cells chemotaxis assay towards CCL20; conditions: Homo sapiens, CD4+ T cell, 3 h, relative -Log IC50, human CD4+ T cells stimulated with anti-CD3 and anti-CD28, migration towards 150 ng/ml CCL20
From the text: CD4+ T Cells Chemotaxis Assay Towards CCL20
Human CD4+ T cells were isolated from buffy coats of healthy donors using a CD4+ T Cell Isolation Kit (Miltenyi Biotec130-096-533). Isolated T cells were stimulated overnight with anti-CD3 and anti-CD28 antibodies (Biolegend 300314/302934) in growth medium (RPMI1640, 10% heat-inactivated FBS, 1× pen/strep (Gibco 15140)). For the chemotaxis assay, Corning Transwell plates were used with a pore size of 5 m (Corning 3388). T cells were counted and diluted to 6*10^6 cells/ml in chemotaxis medium (RPMI1640, 1% BSA, pen/strep). Compounds were four-fold serially diluted in DMSO. Further dilutions were made in chemotaxis medium. Cells were incubated with test compounds for 30 min at 37° C. prior to initiation of the assay (3*10^6 cells/ml). Final DMSO concentration in the assay was 0.2%. Wells of the Transwell plates were filled with 200 μl chemotaxis medium containing 150 ng/ml CCL20 (R&D systems 360-MP). 50 μl of the cell/compound suspension was added to the inserts of the Transwell plates (150,000 cells/insert). The Transwell plates were placed in an incubator at 37° C., 5% CO2 for 3 h. After 3 h, the number of migrated cells was quantified using CellTiter Glo (Promega). Percentage inhibition values were calculated based on the low and high signal obtained with 0.2% DMSO in chemotaxis medium without and with CCL20, respectively. The relative −Log IC50 was determined with GraphPad Prism 9 using a four-parameter dose-response model.

[3] = molecular target: T1, human CCR6; experiment: CHO-K1 CCR6 chemotaxis assay towards CCL20; conditions: relative -Log IC50; CHO-K1 cells overexpressing human CCR6; migration towards 100 ng/ml CCL20; 4 h
Outline: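 Human CCR6-overexpressing CHO-K1 cells (2*10^6 cells/ml) were preincubated 30 min at 37 °C with compound (0.2% DMSO), then allowed to migrate 4 h through 8 µm Transwell pores toward 100 ng/ml CCL20. Migrated cells were counted by CellTiter Glo. −Log IC50 came from four-parameter fits normalised to DMSO without/with CCL20.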

Row | Compound | IC50 [1] | IC50 [2] | IC50 [3]
1 | CC(C)c1nnc2ccc(-c3ccc(S(=N)(=O)[C@H]4CC[C@H](Nc5ccc(S(F)(F)(F)(F)F)cc5)CC4)cc3)cn12 (relative stereo) [Example 102, {4-[3-(propan-2-yl)-[1,2,4]triazolo[4,3-a]pyridin-6-yl]phenyl}[trans-4-{[4-(pentafluoro-λ^6-sulfanyl)phenyl]Amino}cyclohexyl](imino)-λ^6-sulfanone] | 126 nM | 50.1 nM | 158 nM
2 | Cc1[nH]nc2ccc(-c3ccc(S(=O)(=O)[C@H]4CC[C@H](Nc5ccc(S(F)(F)(F)(F)F)cc5)CC4)cc3)cc12 [Example 6, 4-(pentafluoro-λ^6-sulfanyl)-N-[trans-4-[4-(3-methyl-2H-indazol-5-yl)benzenesulfonyl]cyclohexyl]aniline] | 39.8 nM | 0.631 nM | 25.1 nM
3 | N#Cc1cc(-c2ccc(S(=O)(=O)[C@H]3CC[C@H](Nc4ccc(S(F)(F)(F)(F)F)cc4)CC3)cc2)cn2ccnc12 [Example 160, 6-(4-{[trans-4-{[4-(pentafluoro-λ^6-sulfanyl)phenyl]amino}cyclohexyl]sulfonyl}phenyl)imidazo[1,2-a]pyridine-8-carbonitrile] | 50.1 nM | 3.98 nM | –
4 | O=S(=O)(c1ccc(-c2ccc3nnc([C@@H]4CCCN4)n3c2)cc1)[C@H]1CC[C@H](Nc2ccc(S(F)(F)(F)(F)F)cc2)CC1 [Example 161, 4-(pentafluoro-λ^6-sulfanyl)-N-[trans-4-(4-{3-[(2S)-pyrrolidin-2-yl]-[1,2,4]triazolo[4,3-a]pyridin-6-yl}benzenesulfonyl)cyclohexyl]aniline] | 79.4 nM | 7.94 nM | –
5 | O=S(=O)(c1ccc(-c2ccc3nnc(C4CNC4)n3c2)cc1)[C@H]1CC[C@H](Nc2ccc(S(F)(F)(F)(F)F)cc2)CC1 [Example 168, 4-(pentafluoro-λ^6-sulfanyl)-N-[trans-4-{4-[3-(azetidin-3-yl)-[1,2,4]triazolo[4,3-a]pyridin-6-yl]benzenesulfonyl}cyclohexyl]aniline] | 251 nM | 100 nM | –

Now from value to molecule:

Row | IC50 [1] | IC50 [2] | IC50 [3] | Compound
6 | 79.4 nM | 2 nM | 5.01 nM | NC(=O)c1cc(-c2ccc(S(=O)(=O)[C@H]3CC[C@H](Nc4ccc(S(F)(F)(F)(F)F)cc4)CC3)cc2)ccn1 [Example 10, 4-(4-{[trans-4-{[4-(pentafluoro-λ^6-sulfanyl)phenyl]Amino}cyclohexyl]sulfonyl}phenyl)pyridine-2-carboxamide]
7 | 50.1 nM | 5.01 nM | – | NC(=O)c1cc(-c2ccc(S(=O)(=O)[C@H]3CC[C@H](Nc4ccc(S(F)(F)(F)(F)F)cc4)CC3)cc2)cs1 [Example 148, 4-(4-{[trans-4-{[4-(pentafluoro-λ^6-sulfanyl)phenyl]amino}cyclohexyl]sulfonyl}phenyl)thiophene-2-carboxamide]
8 | 63.1 nM | 1 nM | – | Cc1n[nH]c2ncc(-c3ccc(S(=O)(=O)[C@H]4CC[C@H](Nc5ccc(S(F)(F)(F)(F)F)cc5)CC4)cc3)cc12 [Example 150, 4-(pentafluoro-λ^6-sulfanyl)-N-[trans-4-(4-{3-methyl-1H-pyrazolo[3,4-b]pyridin-5-yl}benzenesulfonyl)cyclohexyl]aniline]
9 | 63.1 nM | 6.31 nM | – | O=S(=O)(c1ccc(-c2cc(C(F)(F)F)c3nccn3c2)cc1)[C@H]1CC[C@H](Nc2ccc(S(F)(F)(F)(F)F)cc2)CC1 [Example 151, 4-(pentafluoro-λ^6-sulfanyl)-N-[trans-4-{4-[8-(trifluoromethyl)imidazo[1,2-a]pyridin-6-yl]benzenesulfonyl}cyclohexyl]aniline]
10 | 126 nM | 7.94 nM | – | O=c1[nH]ccn2cc(-c3ccc(S(=O)(=O)[C@H]4CC[C@H](Nc5ccc(S(F)(F)(F)(F)F)cc5)CC4)cc3)cc12 [Example 154, 7-(4-{[trans-4-{[4-(pentafluoro-λ^6-sulfanyl)phenyl]amino}cyclohexyl]sulfonyl}phenyl)-1H,2H-pyrrolo[1,2-a]pyrazin-1-one]
